Results as given in US20250243488A1, “METHODS OF MODULATING PROGRANULIN EXPRESSION USING ANTISENSE OLIGONUCLEOTIDES TARGETING REGULATORY RNAS” (Camp4 Therapeutics Corporation, priority 2022, published 2025).
Oligonucleotides are written 5' to 3', each unit as a sugar letter and its base; * is a phosphorothioate linkage, no mark a phosphodiester; rarer units and linkages stand in square brackets, end groups in braces. Plain capitals give the bases only. e = 2'-O-(2-methoxyethyl) (MOE); l = locked nucleic acid (LNA); [5mC] = 5-methylcytosine; d = 2'-deoxy (DNA)

Tested on: GRN mRNA
Assay: GRN mRNA qPCR in SK-N-AS cells transfected with ASOs
Assay type: cell-based, human
Conditions: SK-N-AS; for hGRN mRNA FC / 120 nM FC (GRN mRNA): 120 nM
Outline: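 Human neuroblastoma SK-N-AS cells transfected with ASOs at increasing concentrations (20 to 160 nM in initial titrations); GRN mRNA quantified by qPCR after 48 hours. Normalized to GAPDH and PPIA, fold change relative to steric non-targeting control ASO(s) (sNTC/CO-1589, with CO-3772 and CO-1929 in some series).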

[1] = Table 11, 48 hours, normalized to CO-1589
[2] = Table 9, 48 hours post-transfection, normalized to CO-1589
[3] = Table 4, normalized to CO-3772 and CO-1589 (sNTC1)
[4] = Table 13, normalized to CO-1589
[5] = Table 12, normalized to CO-1589
[6] = Table 10, 48 hours, normalized to CO-1589
[7] = Table 8, normalized to CO-1589 (sNTC1)
[8] = Table 3, normalized to CO-3772 and CO-1589 (sNTC1)

Question: Which “hGRN mRNA FC” value [1] does the source give for “CO-6453: ASO designed to target an intragenic enhancer RNA (eRNA) (eG*eA*eA*eA*eA*eA*eG*eT*eT*eT*e[5mC]*e[5mC]*eT*e[5mC]*e[5mC]*eA*eT*e[5mC]*e[5mC]*eT)” here?
Answer: 0.9 FC

Question: With “CO-4597: ASO designed to target intergenic enhancers (eRNA) (antisense eA*eG*eG*e[5mC]*eG*eT*e[5mC]*e[5mC]*eT*eT*eT*e[5mC]*e[5mC]*eA*eT*eT*e[5mC]*e[5mC]*e[5mC]*eT)” as the substance, how does the “hGRN mRNA FC” value [2] read?
Answer: 0.9 FC

Question: Which results are given for “CO-4363: longer ASO based on CO-3423 (antisense eG*eG*eA*e[5mC]*eT*eT*eG*eG*eG*eA*eG*eT*eG*eG*eT*eG*eA*e[5mC]*eT*eG*eA)”?
Answer: 30 nM FC (GRN mRNA) [3]: 1.3 FC; 60 nM FC (GRN mRNA) [3]: 2.2 FC; 120 nM FC (GRN mRNA) [3]: 1.8 FC; 30 nM FC (GRN mRNA) [4]: 1.6 FC; 60 nM FC (GRN mRNA) [4]: 1.7 FC; 120 nM FC (GRN mRNA) [4]: 1.7 FC

Question: “CO-4648: ASO designed to target intergenic enhancers (eRNA) (antisense eA*e[5mC]*eG*e[5mC]*e[5mC]*eA*eA*eA*e[5mC]*e[5mC]*e[5mC]*eT*eT*eG*eA*eT*e[5mC]*e[5mC]*eA*eG)” was tested. Which “hGRN mRNA FC” value [2] did it give?
Answer: 1.6 FC

Question: For “CO-4646: ASO designed to target intergenic enhancers (eRNA) (antisense eG*eT*eG*eT*eG*eA*eA*eA*eT*eG*eA*eT*eG*eG*eT*eA*e[5mC]*e[5mC]*eA*eG)”, which “hGRN mRNA FC” value [2] is on record?
Answer: 1.3 FC

Question: With “CO-6443: ASO designed to target an intragenic enhancer RNA (eRNA) (eG*e[5mC]*e[5mC]*e[5mC]*eT*eG*eA*e[5mC]*eA*e[5mC]*eG*e[5mC]*eA*e[5mC]*e[5mC]*eT*eT*eA*e[5mC]*eA)” as the substance, how does the “hGRN mRNA FC” value [1] read?
Answer: 1.0 FC

Question: Which “30 nM FC (GRN mRNA)” value [5] does the source give for “CO-6405: ASO based on parent ASO CO-3462 (antisense eG*eG*eT*eA*eG*dG*dA*eG*dA*dA*eT*d[5mC]*dG*e[5mC]*dT*dT*eT*dG*dG*eG*eA*eG*e[5mC]*eA)” here?
Answer: 1.1 FC

Question: What about the “60 nM FC (GRN mRNA)” value [5] of the same substance?
Answer: 1.3 FC

Question: What about the “120 nM FC (GRN mRNA)” value [5] of the same substance?
Answer: 1.3 FC

Question: What does the source list for “CO-6392: ASO based on parent ASO CO-3462 (antisense eT*eA*eG*lG*eA*lG*eA*lA*eT*l[5mC]*eG*l[5mC]*eT*lT*eT*lG*eG*lG*eA*eG)”?
Answer: 30 nM FC (GRN mRNA) [5]: 1.0 FC; 60 nM FC (GRN mRNA) [5]: 0.8 FC; 120 nM FC (GRN mRNA) [5]: 1.0 FC

Question: What does the source list for “CO-4611: ASO designed to target intergenic enhancers (eRNA) (antisense eT*eA*eT*eT*eA*eA*eT*e[5mC]*e[5mC]*eA*e[5mC]*eG*e[5mC]*eT*eG*eT*e[5mC]*e[5mC]*e[5mC]*eA)”?
Answer: hit identification (GRN mRNA dose escalation) (3.75 nM to 120 nM, 48 hours): initial hits; hGRN mRNA FC [2]: 1.4 FC; 3.75 nM FC (GRN mRNA) (Table 10, 3.75 nM, 48 hours, normalized to CO-1589): 1.1 FC; 7.5 nM FC (GRN mRNA) [6]: 1.1 FC; 15 nM FC (GRN mRNA) (Table 10, 15 nM, 48 hours, normalized to CO-1589): 1.1 FC; 30 nM FC (GRN mRNA) [6]: 1.1 FC; 60 nM FC (GRN mRNA) [6]: 1.1 FC; 120 nM FC (GRN mRNA) [6]: 1.3 FC

Question: With “CO-4630: ASO designed to target intergenic enhancers (eRNA) (antisense eG*eT*e[5mC]*eT*eT*e[5mC]*eA*eA*eG*eA*eA*e[5mC]*eT*eT*eT*eA*e[5mC]*e[5mC]*eG*eA)” as the substance, how does the “hGRN mRNA FC” value [2] read?
Answer: 1.0 FC

Question: “CO-4589: ASO designed to target intergenic enhancers (eRNA) (antisense e[5mC]*eG*e[5mC]*eA*eG*eG*e[5mC]*eT*eA*eG*eG*eA*eG*eT*eA*e[5mC]*e[5mC]*e[5mC]*eA*eT)” was tested. Which “hGRN mRNA FC” value [2] did it give?
Answer: 1.1 FC

Question: Which “30 nM FC (GRN mRNA)” value [4] does the source give for “CO-6425: ASO based on parent ASOs CO-4363 and CO-4364 (eG*eG*eG*eA*e[5mC]*eT*eT*eG*eG*eG*eA*eG*eT*eG*eG*eT*eG*eA*e[5mC]*eT*eG*eA*eA*e[5mC])” here?
Answer: 0.9 FC

Question: And the “60 nM FC (GRN mRNA)” value [4]?
Answer: 1.3 FC

Question: What about the “120 nM FC (GRN mRNA)” value [4] of the same substance?
Answer: 1.3 FC

Question: With “CO-4615: ASO designed to target intergenic enhancers (eRNA) (antisense e[5mC]*eA*eT*eT*eT*e[5mC]*eA*e[5mC]*eA*e[5mC]*eT*eT*eG*eT*eA*eT*eG*eA*eG*e[5mC])” as the substance, how does the “hGRN mRNA FC” value [2] read?
Answer: 1.0 FC

Question: With “CO-6398: ASO based on parent ASO CO-3462 (antisense eT*eA*eG*eG*lA*eG*eA*eA*eT*l[5mC]*eG*e[5mC]*eT*eT*lT*eG*eG*eG*eA*eG)” as the substance, how does the “30 nM FC (GRN mRNA)” value [5] read?
Answer: 1.3 FC

Question: And the “60 nM FC (GRN mRNA)” value [5]?
Answer: 1.5 FC

Question: What about the “120 nM FC (GRN mRNA)” value [5] of the same substance?
Answer: 1.8 FC

Question: How did the “hGRN mRNA FC” value [2] turn out when “CO-4591: ASO designed to target intergenic enhancers (eRNA) (antisense eG*eA*eT*eA*eG*eT*eT*eG*eG*e[5mC]*e[5mC]*e[5mC]*e[5mC]*eT*e[5mC]*eG*eG*eA*eG*eT)” was run?
Answer: 1.1 FC

Question: For “CO-5289: ASO based on CO-3463 incorporating additional LNA modifications (antisense GGATAGGATAGGAGCGAGCC; LNA/MOE mixmer, PS backbone, 5-methylcytosine; listed as RNA; modified_base 1..20: mod_base = OTHER; note = Phosphorothioate linkage; modified_base 1..2: mod_base = OTHER; note = locked nucleic acid; modified_base 3: mod_base = OTHER; note = 2'-O-(2-methoxyethyl) ribonucleotide; modified_base 4: mod_base)”, which “GRN mRNA upregulation as compared to control ASO CO-1589” value (Table 8 series) is on record?
Answer: 2 fold

Question: What about the “7.5 nM FC (GRN mRNA)” value [7] of the same substance?
Answer: 1.4 FC

Question: What about the “13 nM FC (GRN mRNA)” value (Table 8, 13 nM, normalized to CO-1589 (sNTC1)) of the same substance?
Answer: 1.4 FC

Question: And the “30 nM FC (GRN mRNA)” value [7]?
Answer: 1.5 FC

Question: What about the “60 nM FC (GRN mRNA)” value [7] of the same substance?
Answer: 1.9 FC

Question: What about the “120 nM FC (GRN mRNA)” value [7] of the same substance?
Answer: 1.9 FC

Question: What about the “150 nM FC (GRN mRNA)” value (Table 8, 150 nM, normalized to CO-1589 (sNTC1)) of the same substance?
Answer: 1.9 FC

Question: “CO-4635: ASO designed to target intergenic enhancers (eRNA) (antisense eG*eT*eT*eT*eG*e[5mC]*eA*eA*eT*eT*e[5mC]*eT*e[5mC]*eA*eG*eA*e[5mC]*e[5mC]*eT*eG)” was tested. Which “hGRN mRNA FC” value [2] did it give?
Answer: 1.0 FC

Question: Which “hGRN mRNA FC” value [2] does the source give for “CO-4594: ASO designed to target intergenic enhancers (eRNA) (antisense eA*eA*eA*eG*eG*eA*e[5mC]*eG*e[5mC]*e[5mC]*eT*eT*e[5mC]*eT*e[5mC]*eT*e[5mC]*eG*eG*eG)” here?
Answer: 1.3 FC

Question: How did the “hGRN mRNA FC” value [1] turn out when “CO-6435: ASO designed to target an intragenic enhancer RNA (eRNA) (eA*eG*eG*e[5mC]*e[5mC]*eA*e[5mC]*e[5mC]*eT*eG*e[5mC]*eT*eG*e[5mC]*eT*e[5mC]*e[5mC]*eG*eA*eT)” was run?
Answer: 1.2 FC

Question: Which results are given for “CO-6429: ASO based on parent ASOs CO-4363 and CO-4364 (eA*eG*eG*eG*eA*e[5mC]*eT*eT*eG*eG*eG*eA*eG*eT*eG*eG*eT*eG*eA*e[5mC]*eT*eG*eA*eA*e[5mC]*e[5mC])”?
Answer: 30 nM FC (GRN mRNA) [4]: 1.0 FC; 60 nM FC (GRN mRNA) [4]: 1.5 FC; 120 nM FC (GRN mRNA) [4]: 1.4 FC

Question: What does the source list for “CO-6426: ASO based on parent ASOs CO-4363 and CO-4364 (eG*eG*eA*e[5mC]*eT*eT*eG*eG*eG*eA*eG*eT*eG*eG*eT*eG*eA*e[5mC]*eT*eG*eA*eA*e[5mC]*e[5mC])”?
Answer: 30 nM FC (GRN mRNA) [4]: 0.8 FC; 60 nM FC (GRN mRNA) [4]: 1.5 FC; 120 nM FC (GRN mRNA) [4]: 1.3 FC

Question: With “CO-6414: ASO based on parent ASOs CO-4363 and CO-4364 (antisense eG*eG*eA*l[5mC]*eT*lT*eG*lG*eG*lA*eG*lT*eG*lG*eT*lG*eA*l[5mC]*eT*eG*eA)” as the substance, how does the “30 nM FC (GRN mRNA)” value [4] read?
Answer: 1.6 FC

Question: What about the “60 nM FC (GRN mRNA)” value [4] of the same substance?
Answer: 1.4 FC

Question: What about the “120 nM FC (GRN mRNA)” value [4] of the same substance?
Answer: 1.3 FC

Question: With “CO-4357: LNA/PS modified ASO based on CO-3423 (antisense eG*eG*eA*e[5mC]*lT*eT*eG*eG*lG*eA*eG*eT*lG*eG*eT*eG*lA*e[5mC]*eT*eG)” as the substance, how does the “30 nM FC (GRN mRNA)” value [8] read?
Answer: 1.5 FC

Question: And the “60 nM FC (GRN mRNA)” value [8]?
Answer: 1.7 FC

Question: And the “120 nM FC (GRN mRNA)” value [8]?
Answer: 2.4 FC
